The record followed here is article PMC9851200, “Multiparameter phenotypic screening for endogenous TFEB and TFE3 translocation identifies novel chemical series modulating lysosome function” (Autophagy, 2022).

In data set [1] the test system is SH-SY5Y cells. Nature of the data set: Nuclear count from microscopy images (cellular growth and toxicity). Further: reference of the scale not given here.
Another data set concerns endogenous TFEB. Nature of the data set: TFEB nuclear translocation, immunocytochemistry high-content imaging. The format is cell-based.
A further data set concerns endogenous TFE3. In words: TFE3 nuclear translocation, immunocytochemistry high-content imaging. The format is cell-based.
Data set [2] deals with SH-SY5Y cells. Nature of the data set: AK (adenylate kinase) release ToxiLight cytotoxicity assay. Further: reference of the scale not given here.
For data set [3], the system named is SH-SY5Y cells.
Text: The PKIS2 Library was supplied by The Structural Genomics Consortium at the University of North Carolina at Chapel Hill.
Setting [4] is: PKIS2 primary screening, DQ Red BSA intensity.
[5] abbreviates: PKIS2 primary screening, DQ Red BSA spot count.

SMILES strings stand for the structures. Read-outs that look alike come from different tables or passages of the source.
Wherever DQ Intensity is given: reference of the scale not given here.
Wherever DQ Spot is given: reference of the scale not given here.

Turning to `COc1cc(Nc2nccc(-c3c(-c4cccc(NC(=O)c5c(F)cccc5F)c4)nn4ccccc34)n2)cc(OC)c1OC` [UNC10225318A], the “Nuclear Count” value with SH-SY5Y cells [1] (PKIS2 primary screening) was found to be 94.38. This molecule also registered a TFEB % in the data set with endogenous TFEB (PKIS2 primary screening) of 6.03%. In the data set on endogenous TFE3 (PKIS2 primary screening), this molecule gave a TFE3 % of 5.80%. This molecule came in with an AK in the data set with SH-SY5Y cells [2] (PKIS2 primary screening) of 96.57. Moreover, in the data set on SH-SY5Y cells [3] (PKIS2 primary screening), the “DQ Intensity” value came out at 105.65 and the “DQ Spot” value was found to be 109.19.

For the molecule `CCS(=O)(=O)c1ccc(OC)c(Nc2ncc(-c3ccc(F)cc3)o2)c1` [GW591947], in the data set on SH-SY5Y cells [1] (PKIS2 primary screening), the “Nuclear Count” value was 114.66. For the same molecule, the TFEB % in the data set with endogenous TFEB (PKIS2 primary screening) is listed as 4.85%. In the data set on endogenous TFE3 (PKIS2 primary screening), this molecule came in with a TFE3 % of 8.80%. This molecule displayed an AK in the data set with SH-SY5Y cells [2] (PKIS2 primary screening) of 64.95. For the same molecule, the “DQ Intensity” value in the data set on SH-SY5Y cells [3] (setting [4]) was 82.17. Besides, in the data set on SH-SY5Y cells [3] (setting [5]), the “DQ Spot” value is listed as 99.73.

`CCCc1ccc(S(=O)(=O)NC2CCN(c3ccnc(Nc4ccc(OC)cc4)n3)C2)cc1` (stereo not drawn) [GSK1379737]: in the data set on SH-SY5Y cells [1] (PKIS2 primary screening), the “Nuclear Count” value was found to be 116.08. Also, the TFEB % in the data set on endogenous TFEB (PKIS2 primary screening) is reported as 5.95%. This molecule registered a TFE3 % in the data set with endogenous TFE3 (PKIS2 primary screening) of 12.75%. The AK in the data set with SH-SY5Y cells [2] (PKIS2 primary screening) is 106.07. Besides, the “DQ Intensity” value in the data set with SH-SY5Y cells [3] (setting [4]) is listed as 83.70. The “DQ Spot” value in the data set with SH-SY5Y cells [3] (setting [5]) is 93.35.

In the case of `Nc1nc(N)c2nc(-c3ccccc3)[nH]c2n1` [UNC10225149A], the “Nuclear Count” value in the data set with SH-SY5Y cells [1] (PKIS2 primary screening) is listed as 98.36. The molecule also showed a TFEB % in the data set on endogenous TFEB (PKIS2 primary screening) of 6.49%. The molecule further came in with a TFE3 % with endogenous TFE3 (PKIS2 primary screening) of 9.26%. Also, the AK in the data set on SH-SY5Y cells [2] (PKIS2 primary screening) amounted to 120.42. Besides, in the data set on SH-SY5Y cells [3] (PKIS2 primary screening), the “DQ Intensity” value is on record as 89.50 and the “DQ Spot” value turned out to be 98.14.

As to `CC(C)c1nc(-c2ccc(F)c(NS(=O)(=O)c3c(F)cccc3F)c2)c(-c2ccnc(Nc3ccc(N4CCOCC4)nc3)n2)s1` [UNC10225089A], in the data set on SH-SY5Y cells [1] (PKIS2 primary screening), the “Nuclear Count” value was found to be 76.92. Besides, in the data set on endogenous TFEB (PKIS2 primary screening), the TFEB % came out at 9.24%. This molecule had a TFE3 % with endogenous TFE3 (PKIS2 primary screening) of 14.74%. Moreover, in the data set with SH-SY5Y cells [2] (PKIS2 primary screening), the AK is on record as 110.72. In the data set with SH-SY5Y cells [3] (PKIS2 primary screening), the “DQ Intensity” value is on record as 67.64 and the “DQ Spot” value is given as 97.60.

In the case of `CCCCCc1nc2c(N)ncnc2n1CCCCC` [UNC10225389A], the “Nuclear Count” value in the data set on SH-SY5Y cells [1] (PKIS2 primary screening) was found to be 110.88. In addition, the TFEB % with endogenous TFEB (PKIS2 primary screening) was 4.57%. For the same molecule, the TFE3 % in the data set on endogenous TFE3 (PKIS2 primary screening) worked out at 10.63%. The same molecule gave an AK in the data set on SH-SY5Y cells [2] (PKIS2 primary screening) of 96.98. In the data set on SH-SY5Y cells [3] (PKIS2 primary screening), the “DQ Intensity” value was 103.02 and the “DQ Spot” value is listed as 109.08.

Consider `N#Cc1cccc(C(=O)NC2CCN(c3ccnc(Nc4ccc(F)cc4)n3)C2)c1` (stereo not drawn) [GSK1379708], for which the “Nuclear Count” value in the data set on SH-SY5Y cells [1] (PKIS2 primary screening) is given as 107.86. The TFEB % with endogenous TFEB (PKIS2 primary screening) amounted to 6.02%. Also, in the data set on endogenous TFE3 (PKIS2 primary screening), the TFE3 % turned out to be 11.35%. In the data set on SH-SY5Y cells [2] (PKIS2 primary screening), this molecule came in with an AK of 99.36. The “DQ Intensity” value in the data set on SH-SY5Y cells [3] (setting [4]) worked out at 97.27. The “DQ Spot” value with SH-SY5Y cells [3] (setting [5]) came out at 112.33.

As for `O=c1cc(N2CCOCC2)nc2n(Cc3cccc(Cl)c3)ccn12` [UNC10225131A], in the data set with SH-SY5Y cells [1] (PKIS2 primary screening), the “Nuclear Count” value worked out at 104.22. In the data set on endogenous TFEB (PKIS2 primary screening), this molecule showed a TFEB % of 5.81%. For the same molecule, the TFE3 % in the data set on endogenous TFE3 (PKIS2 primary screening) is on record as 11.28%. Also, the AK in the data set with SH-SY5Y cells [2] (PKIS2 primary screening) is listed as 96.90. Besides, in the data set on SH-SY5Y cells [3] (PKIS2 primary screening), the “DQ Intensity” value was 103.05 and the “DQ Spot” value was determined as 113.71.

As to `NS(=O)(=O)c1cccc(N/C=C2\C(=O)Nc3ccc(S(=O)(=O)Cc4c(Cl)cccc4Cl)cc32)c1` [UNC10225298A], in the data set on SH-SY5Y cells [1] (PKIS2 primary screen), the “Nuclear Count” value amounted to 112.41. The TFEB % with endogenous TFEB (PKIS2 primary screen) came out at 5.78%. The TFE3 % with endogenous TFE3 (PKIS2 primary screen) stood at 5.33%. In addition, in the data set on SH-SY5Y cells [2] (PKIS2 primary screen), the AK is 117.06. The “DQ Intensity” value in the data set on SH-SY5Y cells [3] (PKIS2 primary screen, DQ Red BSA intensity) is reported as 100.02. The “DQ Spot” value in the data set with SH-SY5Y cells [3] (PKIS2 primary screen, DQ Red BSA spot count) is listed as 99.79.

Take `CCCc1ccc(S(=O)(=O)NC2CCN(c3ccnc(Nc4ccc(F)cc4)n3)C2)cc1` (stereo not drawn) [GSK1379715]: the “Nuclear Count” value in the data set on SH-SY5Y cells [1] (PKIS2 primary screening) came out at 97.10. Also, the TFEB % with endogenous TFEB (PKIS2 primary screening) came to 6.97%. In the data set with endogenous TFE3 (PKIS2 primary screening), this molecule had a TFE3 % of 11.31%. The AK in the data set on SH-SY5Y cells [2] (PKIS2 primary screening) is given as 100.57. In addition, in the data set with SH-SY5Y cells [3] (setting [4]), the “DQ Intensity” value is on record as 80.29. Besides, in the data set with SH-SY5Y cells [3] (setting [5]), the “DQ Spot” value turned out to be 105.29.

For `CC(C)c1ccc(O)cc1Nc1ccnc2ccc(C(F)(F)F)cc12` [UNC10225322A], the “Nuclear Count” value in the data set on SH-SY5Y cells [1] (PKIS2 primary screening) is 91.30. The molecule also gave a TFEB % in the data set on endogenous TFEB (PKIS2 primary screening) of 7.26%. Besides, in the data set on endogenous TFE3 (PKIS2 primary screening), the TFE3 % worked out at 14.84%. The same molecule registered an AK in the data set on SH-SY5Y cells [2] (PKIS2 primary screening) of 93.97. Further, the “DQ Intensity” value in the data set with SH-SY5Y cells [3] (setting [4]) is recorded as 103.64. In addition, the “DQ Spot” value in the data set with SH-SY5Y cells [3] (setting [5]) is given as 104.80.

On to `Cc1ccc(NC(=O)c2ccnc(N3CCN(C)CC3)c2)cc1-c1ccc(C(=O)NCC2CC2)cc1` [UNC10225009A], for which, in the data set on SH-SY5Y cells [1] (PKIS2 primary screening), the “Nuclear Count” value is recorded as 101.80. In the data set on endogenous TFEB (PKIS2 primary screening), this molecule had a TFEB % of 4.01%. Also, in the data set on endogenous TFE3 (PKIS2 primary screening), the TFE3 % worked out at 12.99%. The molecule also registered an AK with SH-SY5Y cells [2] (PKIS2 primary screening) of 154.31. For the same molecule, in the data set on SH-SY5Y cells [3] (PKIS2 primary screening), the “DQ Intensity” value turned out to be 132.78 and the “DQ Spot” value stood at 99.28.

`COc1cc2ncn(-c3cc(OCc4sccc4Cl)c(C(N)=O)s3)c2cc1OC` [UNC10225153A]: the “Nuclear Count” value with SH-SY5Y cells [1] (PKIS2 primary screening) is 49.58. In addition, in the data set with endogenous TFEB (PKIS2 primary screening), the TFEB % amounted to 9.72%. In the data set on endogenous TFE3 (PKIS2 primary screening), the TFE3 % is listed as 30.18%. This molecule came in with an AK in the data set with SH-SY5Y cells [2] (PKIS2 primary screening) of 134.16. Besides, in the data set with SH-SY5Y cells [3] (PKIS2 primary screening), the “DQ Intensity” value was 186.81 and the “DQ Spot” value is recorded as 134.42.
